Like-named read-outs stand apart in the source and are kept apart here.
Test system: Dengue-2 (Strain New Guinea C)
Assay: Viral yield assay against Dengue-2 in Vero cells
Type: cell-based, Dengue virus
Procedure: Compounds that were active in the primary screen were tested for activity in viral yield assays. […] Vero cells in 12-well plates were infected with dengue-2 virus at a multiplicity of infection (MOI) of 0.1, treated with compound (or DMSO as a control), incubated at 37° C., harvested 48 hours post infection and titered on Vero cells as described above. The EC50 was calculated through ExcelFit. Activities against other serotypes of dengue virus were determined in a similar way.

[1] = Dengue virus, Vero cells, MOI 0.1, harvested 48 hours post infection, read-out: Activity (EC50 class) against Dengue-2 Virus in Vero cells
[2] = Dengue virus, DENV2, viral yield assay, Vero cells, MOI 0.1, 48 hours post infection, read-out: Activity (EC50 in μM) DENV-2
[3] = Dengue virus, Vero, 48 h, read-out: Activity (EC50 class) against Dengue-2 Virus in Vero cells

SMILES	EC50 [1] [µM]	EC50 [2] [µM]	other results
CN1CCc2nc3sc(C(=O)Nc4ccc(C(C)(C)C)cc4)c(N)c3cc2C1 [Compound 35, 3-Amino-6-methyl-5,6,7,8-tetrahydro-thieno[2,3-b][1,6]naphthyridine-2-carboxylic acid (4-tert-butyl-phenyl)-amide]	< 5		
Nc1c(C(=O)Nc2ccc(F)cc2)sc2nc3c(cc12)CCC3 [Compound 177, 3-Amino-6,7-dihydro-5H-cyclopenta[b]thieno[3,2-e]pyridine-2-carboxylic acid (4-fluoro-phenyl)-amide]	> 25		
CCOc1ccccc1NC(=O)c1sc2nc(-c3cccc(OC)c3)ccc2c1N [Compound 501, 3-amino-N-(2-ethoxyphenyl)-6-(3-methoxyphenyl)thieno[2,3-b]pyridine-2-carboxamide]		< 5	
O=C(Nc1ccccc1Cl)c1sc2ncccc2c1O [Compound 382, N-(2-chlorophenyl)-3-hydroxy-thieno[2,3-b]pyridine-2-carboxamide]		5 to 25	
CCc1c2c(nc3sc(C(=O)N4CCOCC4)c(N)c13)CC(C)(C)CC2=O [Compound 208, 3-Amino-4-ethyl-7,7-dimethyl-2-(morpholine-4-carbonyl)-7,8-dihydro-6H-thieno[2,3-b]quinolin-5-one]	> 25		
Nc1c(C(=O)Nc2ccccc2OC(F)(F)F)sc2nc(-c3ccncc3)ccc12 [Compound 487, 3-amino-6-(4-pyridyl)-N-[2-(trifluoromethoxy)phenyl]thieno[2,3-b] pyridine-2-carboxamide]		< 5	
NC(=O)c1sc2nc3c(c(-c4cccs4)c2c1N)CCCC3 [Compound 195, 3-Amino-4-thiophen-2-yl-5,6,7,8-tetrahydro-thieno[2,3-b]quinoline-2-carboxylic acid amide]	> 25		
COc1cccc(-c2ccc3c(N)c(C(=O)Nc4cccc(Cl)c4Cl)sc3n2)c1 [Compound 563, 3-amino-N-(2,3-dichlorophenyl)-6-(3-methoxypnenyl)thieno[2,3-b]pyridine-2-carboxamide]		< 5	
CC1(C)Cc2nc3sc(C(=O)NCCCO)c(N)c3cc2CS1 [Compound 253, 3-Amino-7,7-dimethyl-7,8-dihydro-5H-1,6-dithia-9-aza-cyclopenta[b]naphthalene-2-carboxylic acid (3-hydroxy-propyl)-amide]			EC50 [3]: > 25 µM
COc1ccc(CNC(=O)c2sc3nc4c(cc3c2N)CN(C)CC4)cc1OC [Compound 279, 3-Amino-6-methyl-5,6,7,8-tetrahydro-thieno[2,3-b][1,6]naphthyridine-2-carboxylic acid 3,4-dimethoxy-benzylamide]	> 25		
COc1cccc(-c2ccc3c(N)c(C(=O)Nc4cc(F)ccc4F)sc3n2)c1 [Compound 516, 3-amino-N-(2,5-difluorophenyl)-6-(3-methoxyphenyl)thieno[2,3-b]pyridine-2-carboxamide]		< 5	
Nc1c(C(=O)Nc2ccncc2)sc2nc(-c3cccs3)ccc12 [Compound 357, 3-amino-N-(4-pyridyl)-6-(2-thienyl)thieno [2,3-b]pyridine-2-carboxamide]		< 5	
CN1CCc2nc3sc(C(=O)Nc4cccnc4Cl)c(N)c3cc2C1 [Compound 46, 3-Amino-6-methyl-5,6,7,8-tetrahydro-thieno[2,3-b][1,6]naphthyridine-2-carboxylic acid (2-chloro-pyridin-3-yl)-amide]	< 5		
CCN(CC)C(=O)c1sc2nc(-c3cccs3)cc(C(F)(F)F)c2c1N [Compound 85, 3-Amino-6-thiophen-2-yl-4-trifluoromethyl-thieno[2,3-b]pyridine-2-carboxylic acid diethylamide]	5 to 25		
Cc1cc(C)c2c(C)c(C(=O)NC(C)C3CC3)sc2n1 (centres unmarked) [Compound 394, N-(1-cyclopropylethyl)-3,4,6-trimethyl-thieno[2,3-b]pyridine-2-carboxamide]		< 5	
CC(=O)c1cnc2sc(C(=O)NCc3ccc(CN(C)C)cc3)c(C)c2c1 [Compound 400]		< 5	
CN1CCc2nc3sc(C(=O)Nc4ccc(Cl)cc4)c(N)c3cc2C1 [Compound 13, 3-Amino-6-methyl-5,6,7,8-tetrahydro-thieno[2,3-b][1,6]naphthyridine-2-carboxylic acid (4-chloro-phenyl)-amide]			EC50 [3]: < 5 µM
Nc1c(C(=O)Nc2cccc(Br)c2)sc2nc(-c3ccncc3)ccc12 [Compound 481, 3-amino-N-(3-bromophenyl)-6-(4-pyridyl)thieno[2,3-b]pyridine-2-carboxamide]		5 to 25	
NC(=O)c1sc2nc(-c3cccnc3)ccc2c1N [Compound 164, 3-Amino-6-pyridin-3-yl-thieno[2,3-b]pyridine-2-carboxylic acid amide]	> 25		

SMILES	EC50 [1] [µM]	EC50 [2] [µM]	other results
COc1ccc(-c2c(C#N)c(N)nc3sc(C(=O)Nc4ccc(F)cc4)c(N)c23)cc1OC [Compound 84, 3,6-Diamino-5-cyano-4-(3,4-dimethoxy-phenyl)-thieno[2,3-b]pyridine-2-carboxylic acid (4-fluoro-phenyl)-amide]	5 to 25		
COCc1cc(C)nc2sc3c(=O)n(-c4ccc(C(C)=O)cc4)nnc3c12 [Compound 156, 3-(4-Acetyl-phenyl)-9-methoxymethyl-7-methyl-3H-pyrido[3′,2′:4,5]thieno[3,2-d][1,2,3]triazin-4-one]	> 25		
COc1ccc(NC(=O)c2sc3nc(C)cc(C)c3c2N)cc1 [Compound 163, 3-Amino-4,6-dimethyl-thieno[2,3-b]pyridine-2-carboxylic acid (4-methoxy-phenyl)-amide]			EC50 [3]: > 25 µM
COc1ccc(-c2ccc3c(N)c(C(=O)Nc4cccc(Cl)c4)sc3n2)cc1OC [Compound 540, 3-amino-N-(3-chlorophenyl)-6-(3,4-dimethoxyphenyl)thieno[2,3-b]pyridine-2-carboxamide]		< 5	
Nc1c(C(=O)Nc2ccc(Cl)cc2Cl)sc2nc(-c3ccc4c(c3)OCO4)ccc12 [Compound 537, 3-amino-6-(1,3-benzodioxol-5-yl)-N-(2,4-dichlorophenyl)thieno[2,3-b]pyridine-2-carboxamide]		< 5	
N#Cc1cc2c(N)c(C(=O)Nc3ccc(S(N)(=O)=O)cc3)sc2nc1N [Compound 136, 3,6-Diamino-5-cyano-thieno[2,3-b]pyridine-2-carboxylic acid (4-sulfamoyl-phenyl)-amide]	> 25		
Nc1c(C(=O)N2CCCCC2)sc2nc3c(cc12)CCCCC3 [Compound 191, (3-Amino-6,7,8,9-tetrahydro-5H-1-thia-10-aza-cyclohepta[f]inden-2-yl)-piperidin-1-yl-methanone]	> 25		
Nc1c(C(=O)N2CCCCC2)sc2nc3c(cc12)CCC3 [Compound 188, (3-Amino-6,7-dihydro-5H-cyclopenta[b]thieno[3,2-e]pyridin-2-yl)-piperidin-1-yl-methanone]	> 25		
Nc1c(C(=O)Nc2ccncc2)sc2nc(-c3cccc(C(F)(F)F)c3)ccc12 [Compound 653, 3-amino-N-(4-pyridyl)-6-[3-(trifluoromethyl)phenyl]thieno[2,3-b] pyridine-2-carboxamide]		< 5	
Cc1ccc(NC(=O)c2sc3nc(-c4ccc(F)cc4)ccc3c2N)cc1C [Compound 607, 3-amino-N-(3,4-dimethylphenyl)-6-(4-fluorophenyl)thieno[2,3-b]pyridine-2-carboxamide]		< 5	
Cc1cc(C)c2c(C)c(C(=O)N3CCc4ccccc4C3)sc2n1 [Compound 408, 3,4-dihydro-1H-isoquinolin-2-yl-(3,4,6-trimethylthieno[2,3-b]pyridin-2-yl) methanone]		> 25	
COc1cccc(-c2ccc3c(N)c(C(=O)Nc4cc(C(F)(F)F)ccc4OC)sc3n2)c1 [Compound 558, 3-amino-6-(3-methoxyphenyl)-N-[2-methoxy-5-(trifluoromethyl)phenyl] thieno[2,3-b]pyridine-2-carboxamide]		< 5	
CCc1nc2c(sc3nc4c(cc32)COC(C)(C)C4)c(=O)n1Cc1ccco1 [Compound 235, 3-Ethyl-2-furan-2-ylmethyl-8,8-dimethyl-8,9-dihydro-2H,6H-7-oxa-11-thia-2,4,10-triaza-benzo[b]fluoren-1-one]			EC50 [3]: > 25 µM
Nc1c(C(=O)N(CC(=O)O)c2cccc(C(F)(F)F)c2)sc2nc(-c3cccs3)ccc12 [Compound 326]		< 5	
Nc1c(C(=O)Nc2ccccc2C(F)(F)F)sc2nc(-c3ccncc3)ccc12 [Compound 480, 3-amino-6-(4-pyridyl)-N-[2-(trifluoromethyl)phenyl]thieno[2,3-b] pyridine-2-carboxamide]		< 5	
Cc1sc(NC(=O)c2sc3nc4c(cc3c2N)CN(C)CC4)c(C#N)c1C [Compound 114, 3-Amino-6-methyl-5,6,7,8-tetrahydro-thieno[2,3-b][1,6]naphthyridine-2-carboxylic acid (3-cyano-4,5-dimethyl-thiophen-2-yl)-amide]	5 to 25		
CC(=O)N(CCN)c1c(C(=O)Nc2nnc(-c3ccccc3)s2)sc2nc3c(cc12)CCCCC3 [Compound 314, 3-(N-(2-amino-ethyl)acetamido)-N-(5-phenyl-1,3,4-thiadiazol-2-yl)-6,7,8,9-tetrahydro-5H-cylcohepta[b]thieno[3,2-e]pyridine-2-carboxamide]			EC50 (Vero cells, read-out: Activity (EC50 in μM) DENV-2): < 5 µM
N#Cc1cc2c(N)c(C(=O)Nc3ccc(Cl)c(Cl)c3)sc2nc1N [Compound 129, 3,6-Diamino-5-cyano-thieno[2,3-b]pyridine-2-carboxylic acid (3,4-dichloro-phenyl)-amide]	> 25		
COc1ccc(Cl)cc1NC(=O)c1sc2nc3c(cc2c1N)CN(C)CC3 [Compound 37, 3-Amino-6-methyl-5,6,7,8-tetrahydro-thieno[2,3-b][1,6]naphthyridine-2-carboxylic acid (5-chloro-2-methoxy-phenyl)-amide]	< 5		
